Reference: ChEMBL document CHEMBL1128912, “DNA cleavage of novel propargylic sulfones. Enhancement of potency via intercalating interaction” (Bioorg Med Chem Lett, 1996)

System: KB
Assay: Cytotoxicity was evaluated by using KB/P cancer cells
Format: functional, cell-based
Conditions: Homo sapiens

Structure (SMILES): O=S(=O)(CC#CCCCCC#CCO)c1ccccc1
- IC50: 5.3 µM
